# Where a name gives a salt, the structure may show the parent alone. Read-outs that look alike come from different tables or passages of the source.
# Assays:
# [1] = biological target: T1, Human fibrinogen receptor (αIIbβ3) (Homo sapiens, UniProt P05106+P08514); assay: Purified IIb/IIIa receptor assay (solid phase receptor assay, competition with biotinylated vitronectin); assay type: binding; conditions: read-out: IIb/IIIa IC50
# T1 construct: Human fibrinogen receptor (αIIbβ3) was purified from outdated platelets; from tissue; host or cells: outdated human platelets
# T1 sequence (P08514 32-887 limits assumed): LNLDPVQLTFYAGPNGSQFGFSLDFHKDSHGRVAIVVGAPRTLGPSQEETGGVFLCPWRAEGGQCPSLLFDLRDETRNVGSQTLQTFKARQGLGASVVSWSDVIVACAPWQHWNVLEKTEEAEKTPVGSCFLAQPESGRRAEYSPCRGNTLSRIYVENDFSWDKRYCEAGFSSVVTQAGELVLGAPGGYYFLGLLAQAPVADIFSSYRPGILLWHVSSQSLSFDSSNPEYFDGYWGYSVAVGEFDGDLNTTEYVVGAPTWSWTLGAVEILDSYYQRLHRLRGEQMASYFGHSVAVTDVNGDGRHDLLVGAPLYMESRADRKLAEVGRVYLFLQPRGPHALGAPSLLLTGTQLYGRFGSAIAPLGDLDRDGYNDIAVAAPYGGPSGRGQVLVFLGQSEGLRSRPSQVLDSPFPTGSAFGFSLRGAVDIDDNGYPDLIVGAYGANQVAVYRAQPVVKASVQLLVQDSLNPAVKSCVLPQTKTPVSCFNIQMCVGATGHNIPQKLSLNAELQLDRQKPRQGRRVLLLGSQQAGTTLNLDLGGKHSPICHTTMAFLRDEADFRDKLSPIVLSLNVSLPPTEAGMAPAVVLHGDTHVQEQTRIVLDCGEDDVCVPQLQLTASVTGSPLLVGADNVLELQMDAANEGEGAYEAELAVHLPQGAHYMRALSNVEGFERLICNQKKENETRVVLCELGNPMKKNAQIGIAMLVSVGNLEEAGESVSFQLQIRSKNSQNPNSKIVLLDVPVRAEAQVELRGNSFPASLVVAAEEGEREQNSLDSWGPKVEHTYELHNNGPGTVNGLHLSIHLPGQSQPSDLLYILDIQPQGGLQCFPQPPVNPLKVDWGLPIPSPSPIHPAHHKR
# T1 sequence (P08514 891-1039 limits assumed): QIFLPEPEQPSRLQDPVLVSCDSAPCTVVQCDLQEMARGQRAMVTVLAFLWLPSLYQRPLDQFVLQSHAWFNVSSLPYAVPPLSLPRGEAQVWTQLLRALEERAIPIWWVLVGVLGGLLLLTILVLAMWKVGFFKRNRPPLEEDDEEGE
# T1 sequence (P05106 27-788): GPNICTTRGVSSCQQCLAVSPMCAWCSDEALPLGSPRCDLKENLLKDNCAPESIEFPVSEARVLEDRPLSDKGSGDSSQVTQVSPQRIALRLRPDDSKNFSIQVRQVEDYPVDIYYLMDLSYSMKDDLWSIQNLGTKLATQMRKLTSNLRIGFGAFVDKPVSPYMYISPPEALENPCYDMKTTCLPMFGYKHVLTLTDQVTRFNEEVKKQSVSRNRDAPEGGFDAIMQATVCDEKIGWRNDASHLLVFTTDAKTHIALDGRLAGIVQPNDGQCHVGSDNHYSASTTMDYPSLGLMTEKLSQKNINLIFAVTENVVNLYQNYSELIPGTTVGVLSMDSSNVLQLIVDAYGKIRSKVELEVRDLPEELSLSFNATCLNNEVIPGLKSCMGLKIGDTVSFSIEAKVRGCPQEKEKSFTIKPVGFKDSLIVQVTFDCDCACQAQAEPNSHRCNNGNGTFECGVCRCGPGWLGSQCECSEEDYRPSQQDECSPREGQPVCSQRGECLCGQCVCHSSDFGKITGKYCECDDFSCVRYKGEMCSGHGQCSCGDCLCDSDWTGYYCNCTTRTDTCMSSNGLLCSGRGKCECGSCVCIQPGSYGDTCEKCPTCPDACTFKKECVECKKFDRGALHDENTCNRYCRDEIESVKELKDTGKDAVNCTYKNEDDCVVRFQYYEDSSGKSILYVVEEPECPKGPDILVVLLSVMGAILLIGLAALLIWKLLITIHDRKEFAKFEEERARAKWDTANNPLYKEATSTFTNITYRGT
# Summary of the method: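 Purified platelet αIIbβ3 coated overnight at 4 °C in TBS with 1.0 mM Ca/Mg/Mn, pH 7.4, then BSA-blocked. Compounds (top 1.0×10^−4 M) competed with 1 nM biotinylated vitronectin for 2 h at room temperature. Bound label detected by HRP anti-biotin, A450; values normalized to no-competitor controls, four-parameter fit.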
# M21 human melanoma cells = assay: M21 melanoma cell adhesion assay (αvβ3-dependent adhesion to human fibrinogen-coated plates); assay type: cell-based; conditions: read-out: M21 Melanoma Cells IC50
# Procedure: M21 MELANOMA CELL ADHESION ASSASY
# This assay involves an αvβ3-dependent adhesion of M21 human melanoma cells to human fibrinogen-coated plastic tissue culture dishes.
# Fibrinogen was purified from human plasma. Fibronectin and plasminogen were eliminated from the preparation by passing the sample over gelatin-sepharose 4B and lysine-sepharose 4B resins, respectively. The fibrinogen is diluted to 10 μg/mL in coating buffer ([…] Tris-HCl, 150 mM NaCl, pH 7.4). 100 μL of diluted fibrinogen is added to each well of a 96-well Immulon 2 microtiter plate (Dynatech; Chantilly, Va.) and allowed to coat overnight at 4° C. Plates are blocked with 1% BSA (Miles/Pentex; Kankakee, Ill.) in adhesion buffer (Hank's balanced salt solution without Ca^++ or Mg^++ [HBSS−−], 50 mM Hepes, 1 mg/mL BSA, pH 7.4) for 1 hour at 37° C.
# M21 human melanoma cells were provided by Dr. J. Smith, La Jolla Cancer Research Institute. M21 cells are harvested from tissue culture flasks by washing with HBSS−− and adding cell dissociation solution (Sigma) and incubating for 5 minutes at 37° C. Harvested cells are washed 3 times with adhesion assay buffer containing 200 μM Mn^++. Cells are counted and suspended to a density of 2×10^6/mL in adhesion assay buffer containing 200 μM Mn^++. M21 cells are pre-incubated with antagonists of αvβ3 for 30 minutes at room temperature. Following the pre-incubation, the solutions containing a mixture of cells and antagonists are added to each well of the microtiter plate and allowed to bind for 30 minutes at 37° C.
# Following adhesion, plates are gently washed 3 times with 200 μL of wash buffer (50 mM Tris-HCl, 150 mM NaCl, pH 7.4) using large bore pipet tips. Plates are briefly blotted dry and 100 μL of cell lysis buffer (50 mM sodium acetate, pH 5.0, 0.5% Triton X-100, 0.3 mg/mL p-nitrophenyl phosphate [Sigma] is added to each well. Plates are incubated for 60 minutes at 37° C. and 50 μL of 1N NaOH is added to stop the reaction. The absorbance of the wells at […] is read using an automatic plate reader.
# platelet rich plasma = assay: Human platelet rich plasma assay (ADP induced platelet aggregation); assay type: cell-based; conditions: Homo sapiens, Platelet, ADP induced platelet aggregation in human platelet rich plasma; read-out: Human PRP
# Summary of the method: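 Citrated platelet-rich plasma from aspirin-free healthy human donors was stirred at 37 °C and preincubated with compound for 1 min. Aggregation was then triggered with ADP (added as a 200 uM solution) and recorded photometrically for 3 min. Dose–response curves were built from % inhibition of the maximal saline-control response.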
SMILES,IC50 [1] [nM],IC50 (M21 human melanoma cells; hydrochloride salt) [nM],IC50 (platelet rich plasma) [nM],"IC50 (M21 human melanoma cells; Homo sapiens, M21) [nM]"
"C#C[C@@H](CC(=O)O)NC(=O)CNC(=O)c1cccc(NC(=N)N)c1 [Example 43, 3R-[[2-[[[(3-[(aminoiminomethyl)amino]phenyl]carbonyl]amino]acetyl]amino]-4-pentynoic acid, hydrochloride salt]",1640,188,> 200000,–
"NC(=O)Nc1cccc(C(=O)NCC(=O)NC(CC(=O)O)c2cccnc2)c1 (stereo not drawn) [Example 46, β-[[2-[[[3-(aminocarbonylamino)phenyl]carbonyl]amino]acetyl]amino]pyridine-3-propanoic acid, hydrochloride salt]",1680,–,> 200000,147
"N=C(N)Nc1cccc(C(=O)NCC(=O)N[C@@H](CC(=O)O)CS(=O)(=O)c2ccccc2C(=O)O)c1 [Example 71, 2-[[2S-[[2-[[[3-[(aminoiminomethyl)amino]phenyl]carbonyl]amino]acetyl]amino]-2-(carboxymethyl)ethyl]sulfonyl]benzoic acid, TFA salt]",202,–,> 200000,1040
"NC(=S)Nc1cccc(C(=O)NCC(=O)NC(CC(=O)O)c2cccnc2)c1 (stereo not drawn) [Example 114, β-[[2-[[[3-[(aminothioxomethyl)amino]phenyl]carbonyl]amino]acetyl]amino]pyridine-3-propanoic acid, trifluoroacetate salt]",2940,–,> 200000,200

# Stronger by IC50 [1], values ahead:
IC50 [1] [nM],IC50 (M21 human melanoma cells; hydrochloride salt) [nM],IC50 (platelet rich plasma) [nM],"IC50 (M21 human melanoma cells; Homo sapiens, M21) [nM]",SMILES
170,–,> 200000,13.8,"Cc1ccc(S(=O)(=O)NCC(CC(=O)O)NC(=O)CNC(=O)c2cccc(NC(=N)N)c2)cc1 (stereo not drawn) [Example 65, 3-[[2-[[[3-[(aminoiminomethyl)amino]phenyl]carbonyl]amino]acetyl]amino]-4-[[(4-methylphenyl)sulfonyl]amino]butanoic acid, trifluoroacetate salt]"
39.5,2.54,167000,–,"C#C[C@H](CC(=O)O)NC(=O)CNC(=O)c1cccc(NC(=N)N)c1 [Example 45, 3S-[[2-[[[3-[(aminoiminomethyl)amino]phenyl]carbonyl]amino]acetyl]amino]-4-pentynoic acid, hydrochloride salt]"
1.89,–,57500,0.49,"N=C(N)Nc1cccc(C(=O)NCC(=O)NC(CC(=O)O)c2cnc3ccccc3c2)c1 (stereo not drawn) [Example 99, β-[[2-[[[3-[(aminoiminomethyl)amino]phenyl]carbonyl]amino]acetyl]amino]quinoline-3-propanoic acid, bis(trifluoroacetate)salt]"
